Patent US6605145B1, “Alkylformamide surfactants” (Air Products and Chemicals, Inc., priority 1999, dated 2003)

Legend:
Assay type in all cases: physicochemical
[1] = Solubility limit in water from plot of ln(conc.) vs surface tension at 0.1 b/s
Text: A plot of In(conc.) vs surface tension observed at 0.1 b/s was used to determine that the solubility limit of this material is 0.1 wt %.

[2] = Dynamic surface tension of aqueous solutions, maximum bubble pressure method
Text: where R is a C5 to C11 alkyl group, provided that the organic compound is not an azole derivative fungicide. […] The maximum-bubble-pressure method of measuring surface tension is described in Langmuir 1986, 2, 428-432, which is incorporated by reference.
In the following Examples dynamic surface tension data were obtained for aqueous solutions of various compounds using the maximum bubble pressure method at bubble rates from 0.1 bubbles/second (b/s) to 20 b/s. […] In practical terms, high bubble rates correspond to high printing speeds in lithographic printing, high spray or roller velocities in coating applications, and rapid application rates for agricultural products.

[3] = Foam test based upon ASTM D 1173-53; conditions: aqueous solutions
Method: The foaming properties of 0.1 wt % solutions of the N-octylpyrrolidone and the alkylformamide surfactants of this invention were examined using a procedure based upon ASTM D 1173-53. In this test, a 0.1 wt % solution of the surfactant is added from an elevated foam pipette to a foam receiver containing the same solution. The foam height is measured at the completion of the addition (“Initial Foam Height”) and the time required for the foam to dissipate at the air-liquid interface (“Time to 0 Foam”) is recorded. This test provides a comparison between the foaming characteristics of various surfactant solutions. In general, in coatings, inks, and agricultural formulations, foam is undesirable because it complicates handling and can lead to coating and print defects, and to inefficient application of agricultural materials.

CCCCCCNC=O [n-HF, n-hexylformamide]
solubility limit [1]: 1.1 wt % | Dynamic Surface Tension ([2]; 0.1 wt % in water, 0.1 b/s (Table 4)): 56.0 dynes/cm | Dynamic Surface Tension ([2]; 0.1 wt % in water, 1 b/s (Table 4)): 57.6 dynes/cm | Dynamic Surface Tension ([2]; 0.1 wt % in water, 6 b/s (Table 4)): 58.8 dynes/cm | Dynamic Surface Tension ([2]; 0.1 wt % in water, 15 b/s (Table 4)): 60.3 dynes/cm | Dynamic Surface Tension ([2]; 0.1 wt % in water, 20 b/s (Table 4)): 60.6 dynes/cm | Dynamic Surface Tension ([2]; 0.5 wt % in water, 0.1 b/s): 37.2 dynes/cm | Dynamic Surface Tension ([2]; 0.5 wt % in water, 1 b/s): 38.0 dynes/cm | Dynamic Surface Tension ([2]; 0.5 wt % in water, 6 b/s): 38.8 dynes/cm | Dynamic Surface Tension ([2]; 0.5 wt % in water, 15 b/s): 40.1 dynes/cm | Dynamic Surface Tension ([2]; 0.5 wt % in water, 20 b/s): 40.3 dynes/cm | Dynamic Surface Tension ([2]; 1.0 wt % in water, 0.1 b/s): 28.4 dynes/cm | Dynamic Surface Tension ([2]; 1.0 wt % in water, 1 b/s): 29.0 dynes/cm | Dynamic Surface Tension ([2]; 1.0 wt % in water, 6 b/s): 29.6 dynes/cm | Dynamic Surface Tension ([2]; 1.0 wt % in water, 15 b/s): 30.1 dynes/cm | Dynamic Surface Tension ([2]; 1.0 wt % in water, 20 b/s): 31.1 dynes/cm | surface tension ([2]; 1.0 wt % solution, 20 b/s): 31.1 dyne/cm | Dynamic Surface Tension ([2]; 2.0 wt % in water, 0.1 b/s): 27.4 dynes/cm | Dynamic Surface Tension ([2]; 2.0 wt % in water, 1 b/s): 28.4 dynes/cm | Dynamic Surface Tension ([2]; 2.0 wt % in water, 6 b/s): 29.3 dynes/cm | Dynamic Surface Tension ([2]; 2.0 wt % in water, 15 b/s): 30.7 dynes/cm | Dynamic Surface Tension ([2]; 2.0 wt % in water, 20 b/s): 30.3 dynes/cm | foaming of aqueous solutions (in words) [3]: almost no foam
